Measured values reported in patent US8481732B2 (Incyte Corporation, priority 2009, dated 2013).
pIC50: −log10 of the molar value.

These compounds were tested against T1, histamine H4 receptor (Homo sapiens, UniProt Q9H3N8) (assay: H4 Membrane Binding Assay (3H-Histamine displacement)). Settings: membranes of recombinant HEK293SFM cells, 10 nM 3H-Histamine, 1.5 hr at room temperature.
T1 construct: expressed in transfected cells; host or cells: HEK293SFM cells (membrane preparation)
Method: Recombinant HEK293SFM cells expressing human H1, H2, H3, H4 or mouse H4 were harvested (Packard Filtermate Harvester) in ice-cold Tris-HCl, (50 mM, pH 7.5, Sigma) with protease inhibitors (Roche) and homogenized with a Polytron homogenizer. The homogenate was centrifuged for 5 minutes at 1000 g to remove nuclei and unbroken cells. The supernatant was centrifuged at 50000 g for 30 minutes, and the resulting pellet was re-suspended in ice-cold Tris-HCl (50 mM, pH 7.5). […] Nonspecific binding was determined by inclusion of 1000× unlabeled ligands. The bound radioactivity was separated by filtration through polyethyleneimine-treated GF/B filters (Perkin Elmer). The filters were washed eight times with ice-cold Tris-HCl (50 mM, pH 7.5), and radioactivity retained on the filters was measured by liquid scintillation counting. The binding data were evaluated with Prism.

pIC50 | SMILES
7.64 | CN1CCN(c2nc(N)nc3cc(C(=O)NC(Cc4cccc(Oc5cccc(C#N)c5)c4)C(=O)N(C)C)ccc23)CC1 (stereo not drawn) [Example 174, 2-Amino-N-(3-(3-(3-cyanophenoxy)phenyl)-1-(dimethylamino)-1-oxopropan-2-yl)-4-(4-methylpiperazin-1-yl)quinazoline-7-carboxamide]
6.99 | Cc1cccnc1N1CCC(NC(=O)N2CCc3ccc(-c4cc(N5CCN(C)CC5)nc(N)n4)cc3C2)CC1 [Example 42, 7-[2-Amino-6-(4-methylpiperazin-1-yl)pyrimidin-4-yl]-N-[1-(3-methylpyridin-2-yl)piperidin-4-yl]-3,4-dihydroisoquinoline-2(1H)-carboxamide]
7.44 | CN1CCN(c2nc(N)nc3cc(C(=O)N4CCc5c(cccc5OCc5cccc(C#N)c5)C4)ccc23)CC1 [Example 207, 3((2-(2-Amino-4-(4-methylpiperazin-1-yl)quinazoline-7-carbonyl)-1,2,3,4-tetrahydroisoquinolin-5-yloxy)methyl)benzonitrile]
6.31 | CNC(=O)c1ccc2c(N3CCN(C)CC3)nc(N)nc2c1 [Example 26, 2-Amino-N-methyl-4-(4-methylpiperazin-1-yl)quinazoline-7-carboxamide]
7.15 | CC(C)OC(=O)N1CCC(CC(=O)N2CCc3ccc(-c4cc(N5CCN(C)CC5)nc(N)n4)cc3C2)C1 (stereo not drawn) [Example 119, Isopropyl 3-{2-[7-[2-amino-6-(4-methylpiperazin-1-yl)pyrimidin-4-yl]-3,4-dihydroisoquinolin-2(1H)-yl]-2-oxoethyl}pyrrolidine-1-carboxylate]
6.44 | CN1CCN(c2cc(-c3ccc4c(c3)CN(C(=O)OC3CCN(C(=O)NC5CCCC5)CC3)CC4)nc(N)n2)CC1 [Example 70, 1-[(Cyclopentylamino)carbonyl]piperidin-4-yl 7-[2-amino-6-(4-methylpiperazin-1-yl)pyrimidin-4-yl]-3,4-dihydroisoquinoline-2(1H)-carboxylate]
7.64 | COC(=O)[C@H](Cc1ccc(-c2ccccc2)cc1)NC(=O)c1ccc2c(N3CCN(C)CC3)nc(N)nc2c1 [Example 138, Methyl (2S)-2-({[2-amino-4-(4-methylpiperazin-1-yl)quinazolin-7-yl]carbonyl}amino)-3-biphenyl-4-ylpropanoate]
8.06 | COc1cc(COc2cccc(CNC(=O)c3ccc4c(N5CCN(C)CC5)nc(N)nc4c3)c2)cc(OC)c1 [Example 194, 2-Amino-N-{3-[(3,5-dimethoxybenzyl)oxy]benzyl}-4-(4-methylpiperazin-1-yl)quinazoline-7-carboxamide]
6.77 | CC(C)Cc1ccc(C(C)NC(=O)c2ccc3c(N4CCN(C)CC4)nc(N)nc3c2)cc1 (stereo not drawn) [Example 28, 2-Amino-N-[1-(4-isobutylphenyl)ethyl]-4-(4-methylpiperazin-1-yl)quinazoline-7-carboxamide]
7.42 | CN1CCN(c2cc(-c3ccc4c(c3)CN(C(=O)Cc3ccccc3)CC4)nc(N)n2)CC1 [Example 6, 4-(4-Methylpiperazin-1-yl)-6-[2-(phenylacetyl)-1,2,3,4-tetrahydroisoquinolin-7-yl]pyrimidin-2-amine]
6.98 | CN1CCN(c2cc(-c3ccc4c(c3)CN(C(=O)CC(C)(C#N)C3CC3)CC4)nc(N)n2)CC1 (stereo not drawn) [Example 123, 4-[7-[2-Amino-6-(4-methylpiperazin-1-yl)pyrimidin-4-yl]-3,4-dihydroisoquinolin-2(1H)-yl]-2-cyclopropyl-2-methyl-4-oxobutanenitrile]
8.15 | COC(=O)c1cccc(COc2cccc(C(C)NC(=O)c3ccc4c(N5CCN(C)CC5)nc(N)nc4c3)c2)c1 (stereo not drawn) [Example 200, Methyl 3-({3-[1-({[2-amino-4-(4-methylpiperazin-1-yl)quinazolin-7-yl]carbonyl}amino)ethyl]phenoxy}methyl)benzoate]
7.18 | CN1CCN(c2nc(N)nc3cc(C(=O)NC(Cc4ccc(-c5cccc(F)c5F)nc4)C(=O)N(C)C)ccc23)CC1 (stereo not drawn) [Example 163, 2-Amino-N-[1-{[6-(2,3-difluorophenyl)pyridin-3-yl]methyl}-2-(dimethylamino)-2-oxoethyl]-4-(4-methylpiperazin-1-yl)quinazoline-7-carboxamide]
7.39 | Cc1cnc(C)c(Oc2cccc(CNC(=O)c3ccc4c(N5CCN(C)CC5)nc(N)nc4c3)c2)n1 [Example 187, 2-Amino-N-{3-[(3,6-dimethylpyrazin-2-yl)oxy]benzyl}-4-(4-methylpiperazin-1-yl)quinazoline-7-carboxamide]
7.85 | CN1CCN(c2nc(N)nc3cc(C(=O)N[C@@H](Cc4ccc(-c5cccc(C#N)c5)cc4)C(=O)N(C)C)ccc23)CC1 [Example 154, 2-Amino-N-[(1S)-1-[(3′-cyanobiphenyl-4-yl)methyl]-2-(dimethylamino)-2-oxoethyl]-4-(4-methylpiperazin-1-yl)quinazoline-7-carboxamide]
7.15 | CN1CCN(c2cc(-c3ccc4c(c3)CN(C(=O)C(F)(F)c3ccccc3)CC4)nc(N)n2)CC1 [Example 61, 4-{2-[Difluoro(phenyl)acetyl]-1,2,3,4-tetrahydroisoquinolin-7-yl}-6-(4-methylpiperazin-1-yl)pyrimidin-2-amine]
7.48 | COC(=O)N1CCC(OC(=O)N2CCc3ccc(-c4cc(N5CCN(C)CC5)nc(N)n4)cc3C2)CC1 [Example 115, 1-(Methoxycarbonyl)piperidin-4-yl 7-[2-amino-6-(4-methylpiperazin-1-yl)pyrimidin-4-yl]-3,4-dihydroisoquinoline-2(1H)-carboxylate]
7.16 | CN1CCN(c2nc(N)nc3cc(C(=O)NC(Cc4ccc(-c5ccccc5)cc4)c4nccs4)ccc23)CC1 (stereo not drawn) [Example 151, 2-amino-N-[2-biphenyl-4-yl-1-(1,3-thiazol-2-yl)ethyl]-4-(4-methylpiperazin-1-yl)quinazoline-7-carboxamide]
7.07 | CN1CCN(c2cc(-c3ccc4c(c3)CN(C(=O)CC3CCOCC3)CC4)nc(N)n2)CC1 [Example 110, 4-(4-Methylpiperazin-1-yl)-6-[2-(tetrahydro-2H-pyran-4-ylacetyl)-1,2,3,4-tetrahydroisoquinolin-7-yl]pyrimidin-2-amine]
7.37 | CN1CCN(c2cc(-c3ccc4c(c3)CN(C(=O)NC3CCC(C(F)(F)F)CC3)CC4)nc(N)n2)CC1 (stereo not drawn) [Example 64, 7-[2-Amino-6-(4-methylpiperazin-1-yl)pyrimidin-4-yl]-N-[4-(trifluoromethyl)cyclohexyl]-3,4-dihydroisoquinoline-2(1H)-carboxamide]
7.41 | CN1CCN(c2cc(-c3ccc4c(c3)CN(C(=O)CC(C)(C)C#N)CC4)nc(N)n2)CC1 [Example 121, 4-[7-[2-Amino-6-(4-methylpiperazin-1-yl)pyrimidin-4-yl]-3,4-dihydroisoquinolin-2(1H)-yl]-2,2-dimethyl-4-oxobutanenitrile]
7.43 | CN1CCN(c2cc(-c3ccc4c(c3)CN(C(=O)NC3CCC(F)(F)CC3)CC4)nc(N)n2)CC1 [Example 63, 7-[2-Amino-6-(4-methylpiperazin-1-yl)pyrimidin-4-yl]-N-(4,4-difluorocyclohexyl)-3,4-dihydroisoquinoline-2(1H)-carboxamide]
6.29 | CNC(=O)c1ccc(-c2ccc(N3CCc4ccc(-c5cc(N6CCN(C)CC6)nc(N)n5)cc4C3)nc2)cc1 [Example 19, 4-{6-[7-[2-Amino-6-(4-methylpiperazin-1-yl)pyrimidin-4-yl]-3,4-dihydroisoquinolin-2(1H)-yl]pyridin-3-yl}-N-methylbenzamide]
7.64 | CN1CCN(c2cc(-c3ccc4c(c3)CN(c3ccc(C#N)cc3)CC4)nc(N)n2)CC1 [Example 14, 4-{7-[2-Amino-6-(4-methylpiperazin-1-yl)pyrimidin-4-yl]-3,4-dihydroisoquinolin-2(1H)-yl}benzonitrile]
6.60 | CC(NC(=O)N1CCc2ccc(-c3cc(N4CCN(C)CC4)nc(N)n3)cc2C1)c1ccn(C)n1 (stereo not drawn) [Example 127, 7-[2-Amino-6-(4-methylpiperazin-1-yl)pyrimidin-4-yl]-N-[1-(1-methyl-1H-pyrazol-3-yl)ethyl]-3,4-dihydroisoquinoline-2(1H)-carboxamide]
7.62 | CC(CC(=O)N1CCc2ccc(-c3cc(N4CCN(C)CC4)nc(N)n3)cc2C1)C(F)(F)F (stereo not drawn) [Example 62, 4-(4-Methylpiperazin-1-yl)-6-[2-(4,4,4-trifluoro-3-methylbutanoyl)-1,2,3,4-tetrahydroisoquinolin-7-yl]pyrimidin-2-amine]
7.32 | CN1CCN(c2cc(-c3ccc4c(c3)CN(c3ccc(C#N)cn3)CC4)nc(N)n2)CC1 [Example 16, 6-{7-[2-Amino-6-(4-methylpiperazin-1-yl)pyrimidin-4-yl]-3,4-dihydroisoquinolin-2(1H)-yl}nicotinonitrile]
7.11 | CN1CCN(c2cc(-c3ccc4c(c3)CN(C(=O)OC3CCN(S(=O)(=O)C5CCCC5)CC3)CC4)nc(N)n2)CC1 [Example 89, 1-(Cyclopentylsulfonyl)piperidin-4-yl 7-[2-amino-6-(4-methylpiperazin-1-yl)pyrimidin-4-yl]-3,4-dihydroisoquinoline-2(1H)-carboxylate]
7.60 | CN1CCN(c2cc(-c3ccc4c(c3)CN(C(=O)Cc3ccc(F)cc3)CC4)nc(N)n2)CC1 [Example 65, 4-{2-[(4-Fluorophenyl)acetyl]-1,2,3,4-tetrahydroisoquinolin-7-yl}-6-(4-methylpiperazin-1-yl)pyrimidin-2-amine]

SMILES | pIC50
COC(=O)[C@H](Cc1ccc(OC(=O)NC(C)C)cc1)NC(=O)c1ccc2c(N3CCN(C)CC3)nc(N)nc2c1 [Example 135, (S)-Methyl 2-(2-amino-4-(4-methylpiperazin-1-yl)quinazoline-7-carboxamido)-3-(4-(isopropylcarbamoyloxy)phenyl)propanoate] | 7.15
